Data as given in PubChem BioAssay (NCI).
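Dose response: 5 concentrations. Exposure: 48 h. Format: 96-well plates. Endpoint: linear interpolation; highest concentration if not reached. GI50: concentration for 50% inhibition of growth. The concentration for full growth arrest is given as TGI.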

Legend:
Test in all cases: growth of human tumour cells (NCI), 48 h
[1] = test system: HS 578T breast
[2] = test system: NCI/ADR-RES ovarian
[3] = test system: HOP-62 NSCLC
[4] = test system: EKVX NSCLC
[5] = test system: OVCAR-8 ovarian
[6] = test system: CAKI-1 renal
[7] = test system: SF-539 CNS
[8] = test system: UO-31 renal

SMILES	GI50 [1] [µM]	TGI [1] [µM]	GI50 [2] [µM]	TGI [2] [µM]	GI50 [3] [µM]	TGI [3] [µM]	GI50 [4] [µM]	TGI [4] [µM]	GI50 [5] [µM]	TGI [5] [µM]	GI50 [6] [µM]	TGI [6] [µM]	GI50 [7] [µM]	TGI [7] [µM]	GI50 [8] [µM]	TGI [8] [µM]
N#C/C(=C\c1c(-c2ccccc2)[nH]c2ccccc12)C(=O)c1ccccc1	6.26	40.5	3.11	> 100	16.3	> 100	9.97	> 100	21.7	> 100	2.45	> 100	6.03	43.9	30.5	> 100
COC(=O)[C@]12CC[C@@H](C)[C@H](C)[C@@H]1C1=CC[C@@H]3[C@@]4(C)C(C=O)=C[C@@](C)(COS(C)(=O)=O)C4[C@H](O)C[C@@]3(C)[C@]1(C)CC2 (some centres not stated)	3.12	8.77	2.03	5.3	2.23	4.45	2.14	6.28	2.08	5.71	2.05	5.58	1.83	3.71	1.04	2.35
CNC1=C(C(=O)OC)SC(c2ccccc2)(c2ccccc2)SC1	28.1	> 100	12	70.2	39.4	> 100	36.1	> 100	24.9	> 100	44.1	> 100	26.3	> 100	> 100	> 100
Nc1c(C(=O)N/N=C/c2ccc(-c3cc(Cl)c(Cl)cc3Cl)o2)cnn1-c1ccnc2c(C(F)(F)F)cccc12	5.04	> 100	3.58	87.9	5.24	> 100	3.09	49.1			4.21	> 100	5.48	38.7	3.49	> 100
CCNNC(=O)[C@@H]1[C@H](c2cc(OC)c(OC)c(OC)c2)c2cc3c(cc2[C@H](O)[C@H]1CO)OCO3	0.376	> 100	0.509	17.7	0.561	> 100	0.519	> 100	0.692	> 100	0.596	> 100	0.294	0.802	4.32	> 100
CN(CC(=O)O)Cc1oc(CO)cc(=O)c1O		> 100		> 100		> 100		> 100		> 100		> 100		> 100		> 100
C=C1C(=O)OC2/C=C(\CO)CC/C=C(\CO)CC(OC(=O)C(C)C)C12 (configuration not stated)		49		45.3		36.3		38.8		45.7		3.31		29		27.4
O=C(CCSc1ccnc2c(C(F)(F)F)cccc12)N/N=C/c1cc(Cl)c(Cl)cc1Cl	23.9	49.8	23	49.7	19.8	35.8	38.1	> 100	32.5	86	21.4	43.4	18	35.4	20.6	49.2
CCc1ccc2nccc(NCCCN(C)C)c2c1[N+](=O)[O-]		> 100		> 100		> 100		> 100		> 100		> 100				> 100
